From patent US20210253575A1, “PYRROLIDINE AMINE COMPOUNDS FOR THE TREATMENT OF AUTOIMMUNE DISEASE” (Hoffmann-La Roche Inc., priority 2018, published 2021)

Target: T1, human TLR7 (Homo sapiens, UniProt Q9NYK1)
T1 sequence (Q9NYK1 27-1049): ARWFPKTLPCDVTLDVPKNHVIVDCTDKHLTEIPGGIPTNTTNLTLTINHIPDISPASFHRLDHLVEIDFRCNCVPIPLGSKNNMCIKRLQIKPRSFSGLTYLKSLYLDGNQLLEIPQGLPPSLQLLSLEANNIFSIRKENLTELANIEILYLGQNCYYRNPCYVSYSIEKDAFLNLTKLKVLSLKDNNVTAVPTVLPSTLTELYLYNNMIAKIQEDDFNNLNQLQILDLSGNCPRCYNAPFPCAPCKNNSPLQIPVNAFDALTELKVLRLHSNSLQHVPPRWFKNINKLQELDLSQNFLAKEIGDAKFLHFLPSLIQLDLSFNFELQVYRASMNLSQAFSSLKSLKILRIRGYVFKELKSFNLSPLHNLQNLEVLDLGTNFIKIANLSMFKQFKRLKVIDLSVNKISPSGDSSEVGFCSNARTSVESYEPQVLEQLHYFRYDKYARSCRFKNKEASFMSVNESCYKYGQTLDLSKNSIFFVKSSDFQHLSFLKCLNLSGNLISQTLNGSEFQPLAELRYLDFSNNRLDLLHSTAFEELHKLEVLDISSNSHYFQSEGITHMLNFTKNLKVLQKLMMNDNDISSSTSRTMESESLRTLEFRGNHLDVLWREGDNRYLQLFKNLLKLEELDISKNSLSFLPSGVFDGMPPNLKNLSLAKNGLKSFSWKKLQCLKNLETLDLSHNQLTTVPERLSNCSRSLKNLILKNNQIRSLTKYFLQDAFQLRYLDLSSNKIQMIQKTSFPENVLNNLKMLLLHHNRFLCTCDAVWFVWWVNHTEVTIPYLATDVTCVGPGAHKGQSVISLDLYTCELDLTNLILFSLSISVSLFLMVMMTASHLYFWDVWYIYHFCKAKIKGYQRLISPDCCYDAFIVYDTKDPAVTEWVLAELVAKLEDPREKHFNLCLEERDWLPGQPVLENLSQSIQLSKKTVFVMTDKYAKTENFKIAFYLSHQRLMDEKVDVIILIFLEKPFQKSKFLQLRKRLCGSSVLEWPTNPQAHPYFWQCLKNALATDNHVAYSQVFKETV
Assay: HEK293-Blue-hTLR-7 cells assay (SEAP reporter, R848 stimulation)
Assay type: cell-based
Details: HEK293-Blue-hTLR7 cells, R848 ligand, 20 hrs incubation
Description: The following tests were carried out in order to determine the activity of the compounds of formula (I) in HEK293-Blue-hTLR-7/8/9 cells assay.
HEK293-Blue-hTLR-7 Cells Assay:
A stable HEK293-Blue-hTLR-7 cell line was purchased from InvivoGen (Cat. #: hkb-htlr7, San Diego, Calif., USA). These cells were originally designed for studying the stimulation of human TLR7 by monitoring the activation of NF-κB. A SEAP (secreted embryonic alkaline phosphatase) reporter gene was placed under the control of the IFN-β minimal promoter fused to five NF-κB and AP-1-binding sites. The SEAP was induced by activating NF-κB and AP-1 via stimulating HEK-Blue hTLR7 cells with TLR7 ligands. Therefore the reporter expression was declined by TLR7 antagonist under the stimulation of a ligand, such as R848 (Resiquimod), for incubation of 20 hrs. The cell culture supernatant SEAP reporter activity was determined using QUANTI-Blue™ kit (Cat. #: rep-qb1, Invivogen, San Diego, Ca, USA) at a wavelength of 640 nm, a detection medium that turns purple or blue in the presence of alkaline phosphatase.
HEK293-Blue-hTLR7 cells were incubated at a density of 250,000-450,000 cells/mL in a volume of 170 μL in a 96-well plate in Dulbecco's Modified Eagle's medium (DMEM) containing 4.5 g/L glucose, 50 U/mL penicillin, […], […], 2 mM L-glutamine, 10% (v/v) heat-inactivated fetal bovine serum with addition of 20 μL test compound in a serial dilution in the presence of final DMSO at 1% and 10 μL of 20 uM R848 in above DMEM, perform incubation under 37° C. in a CO2 incubator for 20 hrs. Then 20 μL of the supernatant from each well was incubated with 180 μL Quanti-blue substrate solution at 37° C. for 2 hrs and the absorbance was read at 620-655 nm using a spectrophotometer. The signalling pathway that TLR7 activation leads to downstream NF-κB activation has been widely accepted, and therefore similar reporter assay was modified for evaluating TLR7 antagonist.

Compound | IC50
N#Cc1ccc(N2C[C@H](CN3CC4CCC3CN4)[C@@H](C(F)(F)F)C2)c2nccnc12 (stereo partly drawn) [Example 77, 8-[(3S,4R)-3-(2,5-diazabicyclo[2.2.2]octan-2-ylmethyl)-4-(trifluoromethyl)pyrrolidin-1-yl]quinoxaline-5-carbonitrile] | 0.013 µM
CC[C@@H]1CN(c2ccc(C#N)c3ncccc23)C[C@H]1CN1CCC2(CCNCC2)CC1 (relative stereo) [Example 15, 5-[Trans-3-(3,9-diazaspiro[5.5]undecan-3-ylmethyl)-4-ethyl-pyrrolidin-1-yl]quinoline-8-carbonitrile] | 0.107 µM
CC1(N)CCN(CC2CN(c3ccc(C#N)c4nccnc34)CC23CC3)CC1 (stereo not drawn) [Example 7, 8-[7-[(4-Amino-4-methyl-1-piperidyl)methyl]-5-azaspiro[2.4]heptan-5-yl]quinoxaline-5-carbonitrile] | 0.054 µM
N#Cc1ccc(N2CC(CN3CCC(N)CC3)C3(CC3)C2)c2nccnc12 (single isomer, unassigned) [Example 68A, 8-[7-[(4-Amino-1-piperidyl)methyl]-5-azaspiro[2.4]heptan-5-yl]quinoxaline-5-carbonitrile] | 0.061 µM
N#Cc1ccc(N2C[C@H](CN3CCC(N4CCCCCC4)CC3)[C@@H](C(F)(F)F)C2)c2nccnc12 [Example 62, 8-[(3S,4R)-3-[[4-(Azepan-1-yl)-1-piperidyl]methyl]-4-(trifluoromethyl)pyrrolidin-1-yl]quinoxaline-5-carbonitrile] | 0.034 µM
C[C@@H]1CN(c2ccc(C(F)(F)F)c3nccnc23)C[C@H]1CN1CCC(N2CCCCC2)CC1 (relative stereo) [Example 33, 5-[Trans-3-methyl-4-[[4-(1-piperidyl)-1-piperidyl]methyl]pyrrolidin-1-yl]-8-(trifluoromethyl)quinoxaline] | 0.432 µM
N#Cc1ccc(N2C[C@H](CN3CCC(N4CCCCC4)CC3)[C@@H](C(F)(F)F)C2)c2nccnc12 [Example 61, 8-[(3S,4R)-3-[[4-(1-Piperidyl)-1-piperidyl]methyl]-4-(trifluoromethyl)pyrrolidin-1-yl]quinoxaline-5-carbonitrile] | 0.022 µM
N#Cc1ccc(N2C[C@H](CN3CCC4(CCCNC4)CC3)[C@@H](C(F)(F)F)C2)c2nccnc12 [Example 45, 8-[(3S,4R)-3-(2,9-diazaspiro[5.5]undecan-9-ylmethyl)-4-(trifluoromethyl)pyrrolidin-1-yl]quinoxaline-5-carbonitrile] | 0.049 µM
N#Cc1ccc(N2C[C@H](CN3CCCC4(CCNCC4)C3)[C@@H](C(F)(F)F)C2)c2cccnc12 [Example 57, 5-[(3S,4R)-3-(2,9-Diazaspiro[5.5]undecan-2-ylmethyl)-4-(trifluoromethyl)pyrrolidin-1-yl]quinoline-8-carbonitrile] | 0.073 µM
N#Cc1ccc(N2C[C@H](CN3CCNCC3)[C@@H](C(F)(F)F)C2)c2nccnc12 [Example 59, 8-[(3S,4R)-3-(Piperazin-1-ylmethyl)-4-(trifluoromethyl)pyrrolidin-1-yl]quinoxaline-5-carbonitrile] | 0.018 µM
C[C@H]1CN(c2ccc(C#N)c3nccnc23)C[C@@H]1CN1CCC2(CCNC2)C1 (stereo partly drawn) [Example 30, 8-[(3S,4R)-3-(2,7-diazaspiro[4.4]nonan-2-ylmethyl)-4-methyl-pyrrolidin-1-yl]quinoxaline-5-carbonitrile] | 0.382 µM
CN(C)C1CCN(C[C@H]2CN(c3ccc(C#N)c4nccnc34)C[C@@H]2C(F)(F)F)CC1 [Example 80, 8-[(3S,4R)-3-[[4-(dimethylamino)-1-piperidyl]methyl]-4-(trifluoromethyl)pyrrolidin-1-yl]quinoxaline-5-carbonitrile] | 0.014 µM
N#Cc1ccc(N2C[C@H](CN3CCC(CN)CC3)[C@@H](C(F)(F)F)C2)c2nccnc12 [Example 74, 8-[(3S,4R)-3-[[4-(aminomethyl)-1-piperidyl]methyl]-4-(trifluoromethyl)pyrrolidin-1-yl]quinoxaline-5-carbonitrile] | 0.028 µM
N#Cc1ccc(N2C[C@H](CN3CCC(N)C(F)(F)C3)[C@@H](C(F)(F)F)C2)c2nccnc12 (stereo partly drawn) [Example 64, 8-[(3S,4R)-3-[(4-amino-3,3-difluoro-1-piperidyl)methyl]-4-(trifluoromethyl)pyrrolidin-1-yl]quinoxaline-5-carbonitrile] | 0.036 µM
N#Cc1ccc(N2CC(CN3CCC(N4CCOCC4)CC3)C3(CC3)C2)c2nccnc12 (stereo not drawn) [Example 58, 8-[7-[(4-Morpholino-1-piperidyl)methyl]-5-azaspiro[2.4]heptan-5-yl]quinoxaline-5-carbonitrile] | 0.313 µM
N#Cc1ccc(N2C[C@H](CN3CC4CNCC4C3)[C@@H](C(F)(F)F)C2)c2nccnc12 (stereo partly drawn) [Example 76, 8-[(3S,4R)-3-(2,3,3a,4,6,6a-hexahydro-1H-pyrrolo[3,4-c]pyrrol-5-ylmethyl)-4-(trifluoromethyl)pyrrolidin-1-yl]quinoxaline-5-carbonitrile] | 0.021 µM
N#Cc1ccc(N2C[C@H](CN3CCC(N)CC3)[C@@H](C(F)(F)F)C2)c2nccnc12 [Example 26, 8-[(3S,4R)-3-[(4-Amino-1-piperidyl)methyl]-4-(trifluoromethyl)pyrrolidin-1-yl]quinoxaline-5-carbonitrile] | 0.055 µM
N#Cc1ccc(N2CC(CN3CC4(CCCNC4)C3)C3(CC3)C2)c2nccnc12 (stereo not drawn) [Example 24, 8-[7-(2,8-Diazaspiro[3.5]nonan-2-ylmethyl)-5-azaspiro[2.4]heptan-5-yl]quinoxaline-5-carbonitrile] | 0.298 µM
CC[C@@H]1CN(c2ccc(C#N)c3ncccc23)C[C@H]1CN1CCC2(CCNC2)C1 (relative stereo) [Example 29, 5-[Trans-3-(2,7-diazaspiro[4.4]nonan-2-ylmethyl)-4-ethyl-pyrrolidin-1-yl]quinoline-8-carbonitrile] | 0.37 µM
FC(F)(F)c1ccc(N2CC(CN3C[C@H]4CNC[C@H]4C3)C3(CC3)C2)c2nccnc12 (stereo partly drawn) [Example 41, 5-[7-[[(3aR,6aS)-2,3,3a,4,6,6a-hexahydro-H-pyrrolo[3,4-c]pyrrol-5-yl]methyl]-5-azaspiro[2.4]heptan-5-yl]-8-(trifluoromethyl)quinoxaline] | 0.821 µM
N#Cc1ccc(N2C[C@H](CN3CCCC(F)(CN)C3)[C@@H](C(F)(F)F)C2)c2nccnc12 (stereo partly drawn) [Example 78, 8-[(3S,4R)-3-[[3-(aminomethyl)-3-fluoro-1-piperidyl]methyl]-4-(trifluoromethyl)pyrrolidin-1-yl]quinoxaline-5-carbonitrile] | 0.032 µM
N#Cc1ccc(N2CC(CN3CCOC4(CCNCC4)C3)C3(CC3)C2)c2nccnc12 (stereo not drawn) [Example 67, 8-[7-(1-Oxa-4,9-diazaspiro[5.5]undecan-4-ylmethyl)-5-azaspiro[2.4]heptan-5-yl]quinoxaline-5-carbonitrile] | 0.131 µM
N#Cc1ccc(N2CC(CN3C4CCC3CC(N)C4)C3(CC3)C2)c2nccnc12 (stereo not drawn) [Example 25, 8-[7-[(3-Amino-8-azabicyclo[3.2.1]octan-8-yl)methyl]-5-azaspiro[2.4]heptan-5-yl]quinoxaline-5-carbonitrile] | 0.311 µM
N#Cc1ccc(N2C[C@H](CN3CCC4(CCNC4)C3)[C@@H](C(F)(F)F)C2)c2cccnc12 (stereo partly drawn) [Example 9, 5-[(3S,4R)-3-(2,7-diazaspiro[4.4]nonan-2-ylmethyl)-4-(trifluoromethyl)pyrrolidin-1-yl]quinoline-8-carbonitrile] | 0.061 µM
